Common to all, as to test: NCI-60 cell line screen, 48 h
For assay [1], the system named is EKVX NSCLC.
The test system of assay [2] is HOP-62 NSCLC.
Assay [3] deals with HS 578T breast.
For assay [4], the system named is NCI-H23 lung.
Assay [5] concerns NCI-H522 lung.
Assay [6] concerns OVCAR-4 ovarian.
For assay [7], the system named is PC-3 prostate.
The subject of assay [8] is RPMI-8226 leukemia.
Assay [9] deals with RXF 393 renal.
The test system of assay [10] is SK-MEL-28 melanoma.
For assay [11], the system named is UACC-257 melanoma.

Results on 23 compounds are retold here after PubChem BioAssay (NCI).

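Cells were grown in 96-well plates and exposed to each compound for 48 hours at five concentrations; endpoints were interpolated linearly between bracketing concentrations, or set to the highest concentration if not reached. TGI marks complete inhibition of growth.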

On to `CC1OC(OC2C(O)COC(OC3C(C)OC(OC4C(OC(=O)[C@]56CCC(C)(C)C[C@@H]5C5=CCC7[C@@]8(C)C[C@H](O)[C@H](OC9OC(CO)C(O)C(O)C9O)[C@@](C)(CO)[C@@H]8CC[C@@]7(C)[C@]5(C)CC6)OCC(O)C4O)C(O)C3O)C2O)C(O)C(O)C1O` (stereo partly drawn), for which the TGI in assay [1] is 33.1 µM; in assay [2] it was 37.7 µM; in assay [3], 60.4 µM; in assay [4] it was 51.2 µM; in [5], greater than 100 µM; in assay [6], 52.1 µM. Besides, the TGI is 38.3 µM in assay [7]; greater than 100 µM in assay [8]; 33.5 µM in assay [9]; 32.2 µM in assay [10]; 37 µM in [11].
Regarding `Cc1ncn(-c2ccccc2O)c1C`, the TGI in assay [1], in assay [2], in assay [3], in assay [4], in assay [5] and in assay [6] was greater than 100 µM in each case. The TGI in assay [7], in assay [8], in [9], in assay [10] and in assay [11] was greater than 100 µM each time.
As for `CC(C)(C)c1cc(/C=C(\C#N)C2=NCCO2)cc(C(C)(C)C)c1O`, the TGI in [1] is 17.2 µM; in assay [2], greater than 38.9 µM; in assay [3], 34.1 µM; in assay [4], 13.4 µM; in [5], 9.06 µM; in assay [6], 22.8 µM. Moreover, the TGI in assay [7] is 7.37 µM; in assay [8], 4.74 µM; in assay [9] it was 14.7 µM; in assay [10], 29 µM; in [11], 7.89 µM.
With `O=C(O)c1nc2cc(Cl)ccc2[nH]c1=O`, the TGI in assay [1], in [2], in [3], in assay [4], in assay [5] and in [6] was greater than 100 µM in each case. Moreover, the TGI in assay [7], in assay [8], in [9], in assay [10] and in [11] was greater than 100 µM throughout.
On to `COC1OC2COC1(OCc1ccccc1)C1OC(C)(C)OC21` (stereo not drawn), for which the TGI in assay [1], in assay [2], in [3], in assay [4], in [5] and in assay [6] was greater than 100 µM each time. The TGI in assay [7], in assay [8], in [9], in [10] and in assay [11] was greater than 100 µM throughout.
In the case of `CC(C)(C)OC(=O)NCC(CNC(=O)OC(C)(C)C)C(N)=O`, the TGI in assay [1], in [2], in assay [3], in [4], in assay [5] and in [6] was greater than 100 µM each time. The TGI in assay [7], in assay [8], in [9], in [10] and in assay [11] was greater than 100 µM in each case.
For the compound `CC(NC1=NCCO1)c1ccccc1Cl` (stereo not drawn), the TGI in assay [1], in assay [2], in [3], in [4], in [5] and in assay [6] was greater than 100 µM throughout. Moreover, the TGI in [7], in assay [8], in assay [9], in assay [10] and in assay [11] was greater than 100 µM throughout.
Consider `CCCCSC1=N/C(=C\c2ccccc2O)C(=O)N1`, for which the TGI in assay [1], in [2], in assay [3], in assay [4], in assay [5] and in assay [6] was greater than 100 µM in each case. The TGI in assay [7] was 92.6 µM; in [8] it was greater than 100 µM; in assay [9] it was greater than 100 µM; in assay [10], greater than 100 µM; in [11] it was greater than 100 µM.
Regarding `CN(O)C(=O)CCC(NC(=O)CCC(N)C(=O)O)C(=O)NCC(=O)O` (stereo not drawn), the TGI in assay [1], in assay [2], in assay [3], in assay [4], in assay [5] and in assay [6] was greater than 100 µM throughout. The TGI in [7], in assay [8], in assay [9], in assay [10] and in assay [11] was greater than 100 µM in each case.
As to `S=C(NCc1ccccc1)Nc1sc(=NCc2ccccc2)nc2sc3c(c12)CCN(N1CCc2c(sc4nc(=NCc5ccccc5)sc(NC(=S)NCc5ccccc5)c24)C1)C3`, the TGI in assay [1] is greater than 64.1 µM; in assay [2], greater than 100 µM; in assay [3] it was greater than 100 µM; in assay [4], greater than 83.4 µM; in assay [5], greater than 100 µM; in [6] it was greater than 91 µM. Also, the TGI was greater than 49.8 µM in assay [7]; greater than 100 µM in assay [8]; greater than 65.9 µM in assay [9]; greater than 79 µM in [10]; greater than 78.4 µM in [11].
Consider `C#C[C@]1(O)CC[C@H]2[C@@H]3CCC4=C/C(=N\OCCN5CCCCC5)CC[C@]4(C)[C@H]3CC[C@@]21C`, for which the TGI worked out at 19.9 µM in assay [1]; 24.4 µM in assay [2]; 8.86 µM in [3]; 17.5 µM in assay [4]; 6.08 µM in [5]; 40 µM in [6]. The TGI in assay [7] came to 17.3 µM; in assay [8], 15.3 µM; in assay [9], 11.3 µM; in [10], 27.4 µM; in [11], 12.8 µM.
For `COC(=O)C1=C(C)NC(=O)N2[C@@H](CCOCc3ccccc3)CC[C@@H]12`, the TGI in assay [1], in [2], in [3], in assay [4], in assay [5] and in [6] was greater than 50 µM throughout. Besides, the TGI in [7], in assay [8], in assay [9], in [10] and in [11] was greater than 50 µM each time.
As to `C=C1C(C(=O)OC)[C@H]1C(=O)OC` (stereo partly drawn), the TGI in assay [1], in [2], in assay [3], in [4], in assay [5] and in assay [6] was greater than 100 µM throughout. Further, the TGI in [7], in assay [8], in assay [9], in assay [10] and in [11] was greater than 100 µM in each case.
In the case of `CCOC(=O)c1c(N)sc2c1CC(C)CC2` (stereo not drawn), the TGI is greater than 100 µM in assay [1]; greater than 100 µM in assay [2]; greater than 100 µM in [3]; greater than 100 µM in assay [4]; 40.5 µM in assay [5]; greater than 100 µM in assay [6]. Moreover, the TGI in [7] was greater than 100 µM; in assay [8], 75 µM; in [9], 44.9 µM; in assay [10], greater than 100 µM; in assay [11], 97.3 µM.
For the compound `COc1ccc2[nH]cc(CCNC(=O)[C@H](Cc3ccc(O)cc3)NC(=O)[C@@H](NCC(F)(F)F)C(C)C)c2c1`, the TGI in assay [1] was greater than 100 µM; in assay [2] it was greater than 100 µM; in [3], 91.1 µM; in assay [4], greater than 100 µM; in assay [5], greater than 100 µM; in [6], greater than 100 µM. Further, the TGI in assay [7], in [8], in assay [9], in [10] and in assay [11] was greater than 100 µM in each case.
Regarding `COc1ccc2c(c1)c1c3c(ccc4ncn2c43)N(CCO)CCN=1`, the TGI in assay [1] worked out at 1.08 µM; in assay [2], 0.476 µM; in assay [3], 0.605 µM; in assay [4], 0.466 µM; in assay [5], 0.277 µM; in [6], 0.915 µM. The TGI in [7] stood at 0.464 µM; in assay [8], 2.56 µM; in assay [9] it was 0.473 µM; in [10] it was 0.941 µM; in assay [11], 1.39 µM.
Take `CCOC(=O)C(NC(=O)c1cccc(Cl)c1)(Nc1ccc(S(=O)(=O)Nc2cc(C)on2)cc1)C(F)(F)F` (stereo not drawn): the TGI in [1], in assay [2], in assay [3], in assay [4], in assay [5] and in assay [6] was greater than 100 µM in each case. The TGI in [7], in assay [8], in assay [9], in assay [10] and in assay [11] was greater than 100 µM throughout.
As for `COC(=O)c1cc2c(c(C(=O)OC)c1)CCC2`, the TGI in assay [1], in assay [2], in [3], in assay [4], in assay [5] and in assay [6] was greater than 100 µM throughout. Moreover, the TGI in [7], in [8], in assay [9], in assay [10] and in assay [11] was greater than 100 µM in each case.
Take `Cc1ccc2c(c1)nc1n2C(c2c(F)cccc2F)SC1` (stereo not drawn): the TGI in assay [1] is greater than 100 µM; in assay [2], greater than 100 µM; in assay [3] it was 92.7 µM; in assay [4], greater than 100 µM; in assay [5], greater than 100 µM; in assay [6] it was greater than 100 µM. Further, the TGI in assay [7] was greater than 100 µM; in assay [8], greater than 100 µM; in assay [9] it was 96.4 µM; in assay [10], greater than 100 µM; in assay [11], greater than 100 µM.
`COC(=O)C(CNC(=O)/C=C/c1ccc(OC)c(OC)c1)NC(=O)/C=C/c1ccc(OC)c(OC)c1` (stereo not drawn): the TGI in assay [1], in assay [2], in [3], in assay [4], in [5] and in assay [6] was greater than 100 µM each time. For the same compound, the TGI in assay [7], in assay [8], in assay [9], in assay [10] and in assay [11] was greater than 100 µM throughout.
For `CCOC(=O)c1c(O)cn2c1[nH]c1cccc3cccc2c31`, the TGI in [1], in [2], in assay [3], in assay [4], in assay [5] and in [6] was greater than 100 µM in each case. In addition, the TGI in [7], in assay [8], in assay [9], in assay [10] and in assay [11] was greater than 100 µM each time.
Consider `O=C(Nc1ccccc1)N(CCN(Cc1ccccc1)C(=O)Nc1ccccc1)CCN(Nc1ccccc1)C(=O)Nc1ccccc1`, for which the TGI in [1], in assay [2], in [3], in assay [4], in assay [5] and in assay [6] was greater than 100 µM in each case. Besides, the TGI in assay [7], in assay [8], in assay [9], in assay [10] and in assay [11] was greater than 100 µM throughout.
Regarding `Nc1ncnc2c1ncn2[C@H]1C=C[C@@H](NO)C1`, the TGI in assay [1], in assay [2], in [3], in assay [4], in [5] and in [6] was greater than 100 µM in each case. The TGI in assay [7], in [8], in assay [9], in assay [10] and in assay [11] was greater than 100 µM each time.
